“Also recorded” adds a separate entry of the source. Bridge positions count the residues as written; N and C are the ends. Square brackets hold non-standard residues; d marks the D form. Peptide text beside a SMILES is read from it. R8 = C=CCCCCCC[C@@](C)(N)C(=O)O; S5 = C=CCCC[C@](C)(N)C(=O)O; Nle = CCCC[C@H](N)C(=O)O
Experiments:
[1] = tested on: ubiquitin cascade E1 (UBA1), E2 (UBE2A), E3 (HDM2), substrate p53; test: In vitro ubiquitin pathway reconstitution assay (p53 ubiquitination); format: biochemical; conditions: peptide 30 μM; for ubiquitination of p53 with E2 pre-activated with Ub: pre-activated E2 instead of uncharged E2 and Ub; for ubiquitination of p53 with E1, E2, E3, Ub and ATP: unactivated E2
Description: In Vitro Ubiquitin Pathway Reconstitution Assay: Reactions containing recombinant His-p53 (0.1 μM), in the presence or absence of peptide (30 μM), UBA1 (0.1 μM), UBE2D (1 μM), HDM2 (1 μM), ubiquitin (1 μM) and ATP (10 mM) (all Boston Biochem K-200B), preactivated Ub-UBEA2 (3 μM) (Boston Biochem E2-802), and USP7 (1 μM) (BostonBiochem E-519), as indicated, were mixed and incubated for 2 h at 37° C. in a final volume of […] followed by denaturation by boiling in SDS-containing loading dye for 10 min at 90° C. Samples were resolved by […] gel electrophoresis and transferred to nitrocellulose membrane. Membranes were blocked with 3% milk for 1 h, incubated overnight in PBS containing 3% BSA and mouse p53 antibody (Boston Biochem K-200B) at a 1:1000 dilution, washed in PBS containing 0.1% Tween-20, and then incubated in PBS containing 3% BSA and anti-mouse secondary antibody (BioRad AAC10P) at a 1:5000 dilution for 1 hour at room temperature. Membranes were again washed in PBS containing 0.1% Tween-20 and imaged using Amersham ECL Prime (GE Life Sciences) on an Amersham Imager 680 (GE Life Sciences).

[2] = biological target: T1, UBA1 (Homo sapiens, UniProt P22314); test: Fluorescence polarization binding assay; conditions: presence and absence of ubiquitin and ATP
T1 sequence (P22314 1-1058): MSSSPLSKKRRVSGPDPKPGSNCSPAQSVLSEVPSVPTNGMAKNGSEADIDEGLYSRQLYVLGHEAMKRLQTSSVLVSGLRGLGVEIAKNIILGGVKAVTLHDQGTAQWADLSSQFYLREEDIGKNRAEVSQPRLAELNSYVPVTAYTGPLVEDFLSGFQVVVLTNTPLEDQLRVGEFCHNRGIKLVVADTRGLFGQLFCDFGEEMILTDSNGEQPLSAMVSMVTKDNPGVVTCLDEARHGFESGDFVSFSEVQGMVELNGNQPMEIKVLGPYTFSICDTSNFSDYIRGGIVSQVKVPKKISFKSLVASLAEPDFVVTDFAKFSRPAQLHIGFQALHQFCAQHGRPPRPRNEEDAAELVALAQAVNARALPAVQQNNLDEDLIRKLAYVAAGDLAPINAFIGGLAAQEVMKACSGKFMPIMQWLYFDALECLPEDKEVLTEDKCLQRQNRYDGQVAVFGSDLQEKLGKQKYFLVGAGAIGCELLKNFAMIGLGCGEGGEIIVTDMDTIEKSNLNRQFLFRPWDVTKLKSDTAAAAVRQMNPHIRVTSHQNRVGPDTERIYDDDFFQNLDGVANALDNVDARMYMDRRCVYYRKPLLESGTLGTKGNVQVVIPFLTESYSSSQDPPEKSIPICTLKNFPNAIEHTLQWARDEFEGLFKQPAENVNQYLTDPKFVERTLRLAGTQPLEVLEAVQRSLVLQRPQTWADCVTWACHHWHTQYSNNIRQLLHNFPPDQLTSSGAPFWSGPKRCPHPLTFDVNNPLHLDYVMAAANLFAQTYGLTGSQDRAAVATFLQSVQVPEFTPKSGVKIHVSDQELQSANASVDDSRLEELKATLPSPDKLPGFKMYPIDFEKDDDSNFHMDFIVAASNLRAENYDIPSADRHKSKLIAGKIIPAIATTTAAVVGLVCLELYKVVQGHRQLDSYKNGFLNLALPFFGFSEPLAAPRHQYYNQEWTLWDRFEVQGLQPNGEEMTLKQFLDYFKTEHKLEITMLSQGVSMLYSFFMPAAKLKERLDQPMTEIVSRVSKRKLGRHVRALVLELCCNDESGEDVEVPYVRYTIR
From the text: (§1) In vitro Binding Assays: To assess the binding and affinity of peptidomimetic macrocycles and peptidomimetic precursors to acceptor proteins, a fluorescence polarization assay (FPA) can be used, for example. The FPA technique measures the molecular orientation and mobility using polarized light and fluorescent tracer. When excited with polarized light, fluorescent tracers (e.g., FITC) attached to molecules with high apparent molecular weights (e.g., FITC-labeled peptides bound to a large protein) emit higher levels of polarized fluorescence due to their slower rates of rotation as compared to fluorescent tracers attached to smaller molecules (e.g., FITC-labeled peptides that are free in solution).
as §1, with “ligands” for “peptidomimetic macrocycles and peptidomimetic precursors”

[3] = biological target: T1, UBA1; test: UBA1~Ub thioester adduct formation (thioester transfer assay gel resolving UBA1 from UBA1~Ub); format: biochemical; conditions: all concentrations of peptide

SMILES: CCCC[C@H](NC(C)=O)C(=O)N[C@@H](CO)C(=O)N[C@H](C(=O)N1CCC[C@H]1C(=O)N[C@]1(C)CCCCCCC=CCCC[C@@](C)(C(=O)N[C@@H](Cc2ccccc2)C(=O)N[C@@H](CCCCN)C(=O)N[C@@H](CCCNC(=N)N)C(=O)N[C@@H](CC(C)C)C(=O)N[C@@H](CCC(N)=O)C(N)=O)NC(=O)[C@H](CCCNC(=N)N)NC(=O)[C@H](CCCC)NC(=O)[C@H](CC(C)C)NC(=O)[C@H](CCCNC(=N)N)NC(=O)[C@H](CCCNC(=N)N)NC(=O)[C@H](CCCNC(=N)N)NC1=O)[C@@H](C)O [SAH-UBE2A-11, BSTPX1RRRLBRX2FKRLQ] (Ac-[Nle]STP[R8]RRRL[Nle]R[S5]FKRLQ-NH2; staple 5-12)
- ubiquitination of p53 with E2 pre-activated with Ub [1]: no effect on the ubiquitination of p53
- ubiquitination of p53 with E2 pre-activated with Ub ([1]; listed as SAH-UBE2A): circumvents the inhibitory activity of SAH-UBE2A
- ubiquitination of p53 with E1, E2, E3, Ub and ATP [1]: inhibited the ubiquitination of p53 protein
- ubiquitination of p53 with E1, E2, E3, Ub and ATP ([1]; listed as SAH-UBE2A): inhibits the ubiquitination of p53
- direct binding to recombinant UBA1, fluorescence polarization [2]: binds to UBA1 independent of ubiquitin and ATP; also recorded: direct binding of SAH-UBE2A to recombinant UBA1
- ability of UBA1 to form covalent UBA1~Ub thioester adduct [3]: no effect on the ability of UBA1 to covalently charge itself with ubiquitin
- ability of UBA1 to form covalent UBA1~Ub thioester adduct ([3]; listed as SAH-UBE2A): no effect on the ability of UBA1 to form a covalent UBA1˜Ub thioester adduct

Source: US12358960B2, “Selective targeting of ubiquitin- and ubiquitin-like E1-activating enzymes by structurally-stabilized peptides” (Dana-Farber Cancer Institute, Inc., priority 2019, dated 2025)
